Like-named read-outs stand apart in the source and are kept apart here. Starred links: 1 amine or outer side, 2 acyl side, 3 side chain; linkers in the order of their positions; H or OH if unused. Positions of bridges follow the written chain, without caps; N, C: chain ends. Non-standard residues stand in square brackets, D forms with d. Residues, ends and D or L forms follow the SMILES beside them. Chains are numbered I, II in the order given. Actinocin(9to1) = Cc1c2oc3c(C)ccc(C(=O)[*:1])c3nc-2c(C(=O)[*:2])c(N)c1=O; NMeV = CN[C@H](C(=O)O)C(C)C; Sar = CNCC(=O)O
Key:
HDAC = assay: In vitro cellular HDAC activity assay (fluor de Lys substrate) in HCT-116 cells; type: cell-based; conditions: 8 h
Protocol: HCT-116 cells are seeded in 100 μL of medium per well at a density of 3.5×10^3 cells/well and grown for 24 h in a sterile 96-well solid bottom plate. The assay is carried out according to the manufacturer's instructions (BIOMOL). Briefly, after 24 h the medium iss replaced with 50 μL/well of medium containing 200 μM fluor de Lys™ substrate and 1 μM of trichostatin A (positive control) and test compounds (largazole, acetyl derivative) ranging from 1 μM to 3.2 nM ([…]) and thiol compound ranging from 10 μM to 300 pM. Plates are incubated at 37° C. for 8 h. After the treatment time, 50 μL per well of 1× fluor de Lys™ Developer containing TSA at 2 μM iss added. After developer addition, plates are incubated for 15 min at 37° C. and fluorescence is read (Ex 360 nm, Em 460 nm).

[1] = test system: HeLa nuclear extract HDACs (class I HDACs 1, 2, and 3); assay: Cell-free enzymatic assay with HDAC-enriched HeLa nuclear protein extract; type: biochemical; conditions: fluor de Lys substrate
Protocol: Largazole (1) inhibited HDAC activity from a HeLa cell nuclear protein extract rich in class I HDACs 1, 2, and 3 (BIOMOL); however, it is possible that the thioester is cleaved under assay conditions. To investigate that thiol 9 is a reactive species, we liberated 9 from the acetyl analog 8 of largazole (1) and measured enzymatic activity directly; thiol 9 inhibited the HDACs in the nuclear extract of HeLa cells with a similar IC50 value (Table 3).
Assay buffer (25 ul in blank and 10 ul in control), 1 μM triehostatin and test inhibitors (ranging from 10 μM to 300 pM) are added to test sample wells of the microtiter plate. HDAC-enriched nuclear protein extract from HeLa cells (BIOMOL) (5 μg in 15 uL) is added to all wells except in the no-enzyme control. The assay plate is equilibrated at 37° C., and then 25 μl of substrate fluor de Lys™ substrate is added to a final concentration of 116 μM. HDAC reaction is allowed to proceed for 15 min and then stopped by addition of 50 μl per well of 1× fluor de Lys™ Developer containing TSA at 2 μM. After developer addition, plates are incubated for 15 min at 37° C. and fluorescence is read (Ex 360 nm, Em 460 nm).

HCT-116 cells = assay: HCT-116 growth inhibition; type: cell-based; conditions: Homo sapiens
[2] = test system: NIH3T3 cells (nontransformed fibroblasts); assay: cells; type: cell-based; conditions: for GI50: read-out: Growth-inhibitory activity (GI50), NIH3T3
Protocol: (§1) Cell culture medium was purchased from Invitrogen and fetal bovine serum (FBS) from Hyclone. Cells were propagated and maintained in DMEM medium (high glucose) supplemented with 10% FBS at 37° C. humidified air and 5% CO2.
(§2) Cells suspended in DMEM containing 10% FBS were plated in 96-well plates (MDA-MB-231: 12,000 cells; NMuMG: 5,000 cells; U20S: 5,000 cells; HT29: 10,000 cells; 1MR-32: 30,000 cells; NIH3T3: 5,000 cells) incubated (37° C., 5% CO2) and 24 h later treated with various concentrations of compound 1 or solvent control (1% EtOH). After another 48 h of incubation, cell viability was measured using MITT according to manufacturer's instructions (Promega).
(§3) MDA-MB-231 and NMuMG cells were also treated with paclitaxel (in DMSO), actinomycin D (in DMSO) and doxorubicin (in H2O) and corresponding solvent control (1%) in the same manner. GI50 and LC50 values were calculated as previously described (K. D. Paull, E. Hamel, L. Malspeis, In Cancer Chemotherapeutic Agents, W. E. Foye, Ed., American Chemical Society, Washington, D.C., 1995, pp. 10-11).
(§4) [formula] [formula] [T=absorbance in treated wells (48 h); T0=absorbance at time zero; C=absorbance in control wells (48 h)]

[3] = test system: MDA-MB-231 cells (highly invasive transformed human mammary epithelial cells); assay: cells; type: cell-based
Protocol: as §1, §2, §3, §4

[4] = test system: NMuMG cells (nontransformed murine mammary epithelial cells); assay: cells; type: cell-based; conditions: 48 h, read-out: Growth-inhibitory activity (GI50), NMuMG
Protocol: as §1, §2, §3, §4

[5] = test system: U2OS cells (fibroblastic osteosarcoma); assay: cells; type: cell-based; conditions: for GI50: read-out: Growth-inhibitory activity (GI50), U2OS
Protocol: as §1, §2, §3, §4

in vitro = type: cell-based, murine; conditions: mouse, NMuMG cells, MTT, read-out: LC50 (cytotoxicity), NMuMG
Protocol: as §1, §2, §3, §4

[6] = test system: HT29 cells (colon cancer cell line); assay: Cell viability (MTT) assay, HT29; type: cell-based; conditions: Homo sapiens, HT-29, 48 h
Protocol: as §1, §2, §3, §4

[7] = test system: IMR-32 cells (neuroblastoma cell line); assay: Cell viability (MTT) assay, IMR-32; type: cell-based; conditions: Homo sapiens, 48 h
Protocol: as §1, §2, §3, §4

acetylated histone H3 = assay: Immunoblot analysis of acetylated histone H3 in HCT-116 cells; type: cell-based; conditions: 8 h
Protocol: HCT-116 cells (650,000 cells/dish) are seeded in 10-cm dishes and 24 h later treated with various concentrations of largazole, trichostatin or solvent controls (EtOH for largazole and DMSO for trichostatin). Following incubation for 8 h, whole-cell lysates are prepared using PhosphoSafe lysis buffer (Novagen), proteins extracted, and protein concentration measured using the BCA method (Pierce). Cell lysates containing equal amounts of protein are separated by SDS-PAGE, transferred to PVDF membranes, probed with antibodies and detected with the Supersignal Femto Western blotting kit (Pierce). Anti-acetyl-histone H3 (Lys9/18) and anti-histone H3 primary antibodies are obtained from Millipore and horseradish peroxidase conjugated anti-rabbit secondary antibody is purchased from Cell Signaling.

[8] = Mus musculus, NIH3T3 cells, 48 h, MTT
[9] = Homo sapiens, MDA-MB-231, 48 h, MDA-MB-231 cells, 48 h, MTT, read-out: Growth-inhibitory activity (GI50), MDA-MB-231
[10] = Mus musculus, Epithelial cell, NMuMG cells, MTT
[11] = Homo sapiens, U2OS cells, 48 h, MTT

`CC(=O)SCCC=CC1CC(=O)NCc2nc(cs2)C2=NC(C)(CS2)C(=O)NC(C(C)C)C(=O)O1` (centres unmarked) [Compound 8] gave an IC50 (HDAC) of 0.05 ± 0.018 µM, an IC50 [1] of 0.052 ± 0.027 µM and a GI50 (HCT-116 cells) of 0.033 ± 0.002 µM.

For `COc1cccc2c1C(=O)c1c(O)c3c(c(O)c1C2=O)C[C@@](O)(C(=O)CO)C[C@@H]3O[C@H]1C[C@H](N)[C@H](O)[C@H](C)O1` [Doxorubicin, reference compound], the GI50 [2, 8] was 0.047 µM, the GI50 [3, 9] was 0.31 µM and the GI50 [4, 10] was 0.063 µM. It also gave a GI50 [5, 11] of 0.22 µM.

In the case of `CC(=O)O[C@H]1C(=O)[C@@]2(C)[C@H]([C@H](OC(=O)c3ccccc3)[C@]3(O)C[C@H](OC(=O)[C@H](O)[C@@H](NC(=O)c4ccccc4)c4ccccc4)C(C)=C1C3(C)C)[C@]1(OC(C)=O)CO[C@@H]1C[C@@H]2O` [Paclitaxel, reference compound], the GI50 [2, 8] is reported as 0.0064 µM, the GI50 [3, 9] is reported as 0.007 µM and the GI50 [4, 10] is reported as 0.0059 µM. It also gave a GI50 [5, 11] of 0.012 µM.

For `CC(C)C1NC(=O)C2(C)CSC(=N2)c2csc(n2)CNC(=O)CC(C=CCCS)OC1=O` (centres unmarked) [Compound 9], the IC50 (HDAC) was 0.209 ± 0.015 µM, the IC50 [1] was 0.042 ± 0.029 µM and the GI50 (HCT-116 cells) was 0.038 ± 0.005 µM.

Work on `Cc1c2oc3c(C)ccc(C(=O)N[C@@H]4C(=O)N[C@H](C(C)C)C(=O)N5CCC[C@H]5C(=O)N(C)CC(=O)N(C)[C@@H](C(C)C)C(=O)O[C@@H]4C)c3nc-2c(C(=O)N[C@@H]2C(=O)N[C@H](C(C)C)C(=O)N3CCC[C@H]3C(=O)N(C)CC(=O)N(C)[C@@H](C(C)C)C(=O)O[C@@H]2C)c(N)c1=O` [Actinomycin D, reference compound] (I: T[dV]P[Sar][NMeV] / II: T[dV]P[Sar][NMeV]; ester I:1-I:C, II:1-II:C; linker I:N-II:N via Actinocin(9to1)) yielded a GI50 ([2]; NIH3T3 cells, 48 h, MTT) of 0.0004 µM, a GI50 ([3]; MDA-MB-231 cells, 48 h, MTT, read-out: Growth-inhibitory activity (GI50), MDA-MB-231) of 0.0005 µM and a GI50 ([4]; NMuMG cells, MTT) of 0.0003 µM. The GI50 ([5]; U2OS cells, 48 h, MTT) was 0.0008 µM.

`CCCCCCCC(=O)SCC/C=C/[C@@H]1CC(=O)NCc2nc(cs2)C2=N[C@@](C)(CS2)C(=O)N[C@@H](C(C)C)C(=O)O1` [Largazole (1), largazole] showed an IC50 (HDAC) of 0.051 ± 0.003 µM, a CC50 at 48 h (in vitro) of 0.272 µM and a GI50 ([2]; Mus musculus, NIH3T3, 48 h) of 0.48 µM. For the same molecule, the “Toxicity (cytotoxicity) in NIH3T3” value ([2]; NIH3T3 cells, 48 h, MTT) was “no apparent toxicity”, the GI50 ([3]; Homo sapiens, MDA-MB-231, 48 h, read-out: Growth-inhibitory activity (GI50), MDA-MB-231, MDA-MB-231 cells, 48 h, MTT) was 0.008 µM and the “Differential growth-inhibitory activity between transformed and nontransformed epithelial cells” value ([3]; MDA-MB-231 vs NMuMG (GI50)) was 15 fold. It also gave a GI50 ([3]; read-out: Growth-inhibitory activity (GI50), MDA-MB-231, MDA-MB-231 cells, 48 h, MTT) of 0.0077 µM, a GI50 ([4]; Mus musculus, Epithelial cell) of 0.122 µM and a GI50 ([5]; Homo sapiens, U2OS, 48 h) of 0.055 µM. The CC50 ([5]; Homo sapiens, U2OS, 48 h, read-out: LC50 (cytotoxicity), U2OS) was 0.094 µM, the “Differential growth-inhibitory activity between transformed and nontransformed fibroblasts” value ([5]; U2OS vs NIH3T3 (GI50)) was 8 fold and the GI50 [6] was 0.012 µM. The CC50 ([6]; read-out: LC50 (cytotoxicity), HT29) was 0.022 µM, the GI50 [7] was 0.016 µM and the IC50 [1] was 0.037 ± 0.011 µM. The GI50 (HCT-116 cells) was 0.044 ± 0.01 µM and the “Immunoblot of endogenous HDAC substrate acetylated histone H3” value (acetylated histone H3) was “same dose-response relationship”.

Source: US9023875B2, “Macrocyclic compounds and methods of treatment” (University of Florida Research Foundation, Inc., priority 2007, dated 2015)
